Our source for the IC50 values is US10894788B2, “Inhibitors of cyclin-dependent kinases” (Kinnate Biopharma Inc., priority 2018, dated 2021).

For one assay, the target named is CDK12 wt/CycK (Homo sapiens (Human), UniProt Q9NYV4). Put plainly: Radiometric protein kinase assay (33PanQinase Activity Assay), Assay Condition A (thiol containing conditions). Type of assay: biochemical.
Sequence of CDK12 wt/CycK (Q9NYV4 whole entry): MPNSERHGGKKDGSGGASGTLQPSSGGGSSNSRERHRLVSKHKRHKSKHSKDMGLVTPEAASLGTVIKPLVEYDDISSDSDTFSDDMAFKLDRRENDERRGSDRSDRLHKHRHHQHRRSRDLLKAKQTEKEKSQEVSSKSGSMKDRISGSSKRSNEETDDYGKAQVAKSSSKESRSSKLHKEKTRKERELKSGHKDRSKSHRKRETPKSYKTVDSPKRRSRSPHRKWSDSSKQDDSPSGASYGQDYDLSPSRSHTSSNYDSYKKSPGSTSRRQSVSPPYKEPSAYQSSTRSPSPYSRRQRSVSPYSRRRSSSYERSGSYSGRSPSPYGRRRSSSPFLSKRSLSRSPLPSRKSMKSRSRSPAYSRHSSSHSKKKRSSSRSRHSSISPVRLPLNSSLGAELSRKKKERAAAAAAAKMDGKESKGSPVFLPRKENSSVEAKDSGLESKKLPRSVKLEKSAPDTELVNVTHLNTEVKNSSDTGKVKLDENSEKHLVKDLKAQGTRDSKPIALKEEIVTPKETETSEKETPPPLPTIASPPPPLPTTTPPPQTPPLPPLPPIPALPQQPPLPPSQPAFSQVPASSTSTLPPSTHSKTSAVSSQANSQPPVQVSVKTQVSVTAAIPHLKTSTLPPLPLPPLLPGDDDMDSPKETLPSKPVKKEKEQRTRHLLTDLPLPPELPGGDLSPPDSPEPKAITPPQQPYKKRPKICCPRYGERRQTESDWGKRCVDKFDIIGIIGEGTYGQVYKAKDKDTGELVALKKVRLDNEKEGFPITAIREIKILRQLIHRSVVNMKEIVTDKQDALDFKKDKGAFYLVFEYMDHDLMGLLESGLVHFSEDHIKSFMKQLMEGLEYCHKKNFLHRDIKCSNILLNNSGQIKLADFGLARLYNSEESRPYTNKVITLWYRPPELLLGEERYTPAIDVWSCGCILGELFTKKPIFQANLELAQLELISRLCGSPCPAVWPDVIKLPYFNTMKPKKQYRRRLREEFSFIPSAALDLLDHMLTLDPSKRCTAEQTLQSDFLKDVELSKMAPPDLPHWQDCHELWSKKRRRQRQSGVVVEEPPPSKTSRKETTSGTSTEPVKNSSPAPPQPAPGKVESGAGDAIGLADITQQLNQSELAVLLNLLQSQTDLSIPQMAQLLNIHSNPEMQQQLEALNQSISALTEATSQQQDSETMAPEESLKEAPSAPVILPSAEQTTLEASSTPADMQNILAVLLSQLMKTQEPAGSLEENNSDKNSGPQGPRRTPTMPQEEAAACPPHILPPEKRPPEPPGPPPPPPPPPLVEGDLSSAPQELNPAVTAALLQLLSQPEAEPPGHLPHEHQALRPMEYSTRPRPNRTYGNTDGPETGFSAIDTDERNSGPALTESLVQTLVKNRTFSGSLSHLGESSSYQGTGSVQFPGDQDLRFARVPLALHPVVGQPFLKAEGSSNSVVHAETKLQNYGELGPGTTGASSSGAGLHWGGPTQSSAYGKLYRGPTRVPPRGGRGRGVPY
Sequence of CDK12 wt/CycK (O75909 whole entry partner): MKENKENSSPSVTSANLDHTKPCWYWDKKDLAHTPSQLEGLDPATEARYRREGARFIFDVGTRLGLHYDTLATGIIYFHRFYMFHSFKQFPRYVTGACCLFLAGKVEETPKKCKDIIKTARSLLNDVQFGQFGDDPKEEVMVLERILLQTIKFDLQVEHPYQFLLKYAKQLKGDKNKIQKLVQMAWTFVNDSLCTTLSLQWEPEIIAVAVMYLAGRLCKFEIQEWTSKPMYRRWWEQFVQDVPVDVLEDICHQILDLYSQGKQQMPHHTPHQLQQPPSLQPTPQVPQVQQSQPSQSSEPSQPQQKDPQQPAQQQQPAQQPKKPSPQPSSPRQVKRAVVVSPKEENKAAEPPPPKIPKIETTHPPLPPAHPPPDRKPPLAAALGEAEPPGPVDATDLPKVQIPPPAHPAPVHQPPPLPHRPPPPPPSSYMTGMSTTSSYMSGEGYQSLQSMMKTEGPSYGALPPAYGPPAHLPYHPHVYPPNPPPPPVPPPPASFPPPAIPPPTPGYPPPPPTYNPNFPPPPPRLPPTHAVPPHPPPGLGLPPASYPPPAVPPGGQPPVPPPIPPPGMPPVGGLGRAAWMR
Conditions: not given
Here is the method:
Example 1—Assay Condition A (Thiol Containing Conditions)
Objective: The IC50 profile of test compounds was determined using three protein kinases.
Test compounds: The compounds were provided as pre-weighed powders in vials. The compounds were dissolved to 1×10^−02M by adding DMSO. 100 μl of each of the resulting stock solutions were transferred into column 2 of four 96 well “master plates”.
Prior to testing, the 1×10^−02M stock solutions in column 2 of the master plates were subjected to a serial, semi-logarithmic dilution using 100% DMSO as a solvent. […] Column 1 and 7 were filled with 100% DMSO as controls. Subsequently, 2×10 μl from each well of the serial diluted copy plates were aliquoted with a 96 channel pipettor into two identical sets of “compound dilution plates”.
In the process, 90 μl H2O were added to each well of a set of compound dilution plates. To minimize potential precipitation, the H2O was added to each plate only a few minutes before the transfer of the compound solutions into the assay plates. Each plate was shaken thoroughly, resulting in a “compound dilution plate/10% DMSO”.
For the assays, 5 μl solution from each well of the compound dilution plates/10% DMSO were transferred into the assay plates. The final volume of the assay was 50 μl. All compounds were tested at 10 final assay concentrations in the range from 1×10^−04M to 3×10^−09M, in singlicate. The final DMSO concentration in the reaction cocktails was 1% in all cases.
Recombinant protein kinases: All protein kinases were expressed in Sf9 insect cells or in E. coli as recombinant GST-fusion proteins or His-tagged proteins, either as full-length or enzymatically active fragments. All kinases were produced from human cDNAs and purified by either GSH-affinity chromatography or immobilized metal. Affinity tags were removed from a number of kinases during purification. The purity of the protein kinases was examined by SDS-PAGE/Coomassie staining, the identity was checked by mass spectroscopy.
Protein kinase assay: A radiometric protein kinase assay (^33PanQinase® Activity Assay) was used for measuring the kinase activity of the three protein kinases. All kinase assays were performed in 96-well FlashPlates™ from PerkinElmer (Boston, Mass., USA) in a 50 μl reaction volume. The reaction cocktail was pipetted in four steps in the following order: • 20 μl of assay buffer (standard buffer) • 5 μl of ATP solution (in H2O) • 5 μl of test compound (in 10% DMSO) • 20 μl enzyme/substrate mix
The following amounts of enzyme and substrate were used per well:
The reaction cocktails were incubated at 30° C. for 60 minutes. The reaction was stopped with 50 μl of 2% (v/v) H3PO4, plates were aspirated and washed two times with 200 μl 0.9% (w/v) NaCl. Incorporation of ^33Pi was determined with a microplate scintillation counter (Microbeta, Wallac). All assays were performed with a BeckmanCoulter/SAGIAN™ Core System.
Evaluation of raw data: The median value of the counts in column 1 (n=8) of each assay plate was defined as “low control”. This value reflects unspecific binding of radioactivity to the plate in the absence of a protein kinase but in the presence of the substrate. The median value of the counts in column 7 of each assay plate (n=8) was taken as the “high control”, i.e. full activity in the absence of any inhibitor. The difference between high and low control was taken as 100% activity.
As part of the data evaluation the low control value from a particular plate was subtracted from the high control value as well as from all 80 “compound values” of the corresponding plate. The residual activity (in %) for each well of a particular plate was calculated by using the following formula: Res. Activity (%)=100×[(cpm of compound−low control)/(high control−low control)]
The residual activities for each concentration and the compound IC50 values were calculated using Quattro Workflow V3.1.1 (Quattro Research GmbH, Munich, Germany).
In general, IC50 refers to the midpoint of a concentration-inhibition curve. With `C=CC(=O)Nc1ccc(C(=O)N2CC[C@@H](Nc3ncc(Cl)cn3)C2)cc1OCCN(C)C` [Example 112, (R)—N-(4-(3-((5-chloropyrimidin-2-yl)amino)pyrrolidine-1-carbonyl)-2-(2-(dimethylamino)ethoxy)phenyl)acrylamide], the half-inhibitory concentration (IC50) fell in the range of 0.1 to 1 µM.

Staying with this assay, now noted: thiol containing conditions (1.2 mM DTT), ATP 0.3 μM; read-out: CDK12 IC50 Condition A.
For the compound `[2H]C([2H])([2H])Oc1nc(N[C@@H]2CCN(C(=O)c3ccc(NC(=O)/C=C/CN(C)C)cc3)C2)ncc1Cl` [Example 114, (R,E)-N-(4-(3-((5-chloro-4-(trideuteromethoxy)pyrimidin-2-yl)amino)pyrrolidine-1-carbonyl)phenyl)-4-(dimethylamino)but-2-enamide], the concentration for half-maximal inhibition (IC50) lay within 0.1 to 1 µM. Take `C=CC(=O)Nc1ccc(C(=O)N2CC[C@@H](Nc3ncc(C(F)(F)F)c(N)n3)C2)cc1` [Example 91, (R)—N-(4-(3-((4-amino-5-(trifluoromethyl)pyrimidin-2-yl)amino)pyrrolidine-1-carbonyl)phenyl)acrylamide]: the half-inhibitory concentration (IC50) was less than 0.1 µM. On the same count and under the same terms, the figure for `C=CC(=O)Nc1ccc(C(=O)N2CC[C@@H](Nc3ncc(CC(C)C)cn3)C2)cc1` [Example 107, (R)—N-(4-(3-((5-isobutylpyrimidin-2-yl)amino)pyrrolidine-1-carbonyl)phenyl)acrylamide] is 1 to 10 µM; for `C=CC(=O)Nc1nc(C(=O)N2CCC[C@@H](Nc3ncc(Cl)c(OC)n3)C2)cs1` [Example 101, (R)—N-(4-(3-((5-chloro-4-methoxypyrimidin-2-yl)amino)piperidine-1-carbonyl)thiazol-2-yl)acrylamide] it is 0.1 to 1 µM. Turning to `C=CC(=O)Nc1cc(C(=O)N2CC[C@@H](Nc3ncc(Cl)cn3)C2)nn1C` [Example 110, (R)—N-(3-(3-((5-chloropyrimidin-2-yl)amino)pyrrolidine-1-carbonyl)-1-methyl-1H-pyrazol-5-yl)acrylamide], the IC50 lay in the range of 1 to 10 µM. Consider `C/C=C/C(=O)Nc1ccc(C(=O)N2CC[C@@H](Nc3ncc(Cl)cn3)C2)cc1` [Example 131, (R,E)-N-(4-(3-((5-chloropyrimidin-2-yl)amino)pyrrolidine-1-carbonyl)phenyl)but-2-enamide], for which the IC50 fell in the range of 0.1 to 1 µM.

As for `C=CC(=O)Nc1ccc(C(=O)N2CC[C@@H](Nc3ncc(Cl)c(OCC)n3)C2)cc1OC1CCOC1` (stereo partly drawn) [Example 143, N-(4-((R)-3-((5-chloro-4-ethoxypyrimidin-2-yl)amino)pyrrolidine-1-carbonyl)-2-((tetrahydrofuran-3-yl)oxy)phenyl)acrylamide], the 50% inhibitory concentration (IC50) was less than 0.1 µM. For the compound `C=CC(=O)Nc1ccc(C(=O)N2CC[C@@H](Nc3ncc(Cl)c(OCCOCC)n3)C2)cc1` [Example 153, (R)—N-(4-(3-((5-chloro-4-(2-ethoxyethoxy)pyrimidin-2-yl)amino)pyrrolidine-1-carbonyl)phenyl)acrylamide], the IC50 was 0.1 to 1 µM. `C=CC(=O)Nc1ccc(C(=O)N2CC[C@@H](Nc3ncc(Br)cn3)C2)cc1O[C@@H]1CCN(C)C1` [Example 163, N-(4-((R)-3-((5-bromopyrimidin-2-yl)amino)pyrrolidine-1-carbonyl)-2-(((R)-1-methylpyrrolidin-3-yl)oxy)phenyl)acrylamide]: the IC50 was less than 0.1 µM. On to `COc1nc(N[C@@H]2CCN(C(=O)c3ccc(NC(=O)/C=C/CN4CCCC(F)(F)C4)cc3)C2)ncc1Cl` [Example 173, (R,E)-N-(4-(3-((5-chloro-4-methoxypyrimidin-2-yl)amino)pyrrolidine-1-carbonyl)phenyl)-4-(3,3-difluoropiperidin-1-yl)but-2-enamide], for which the concentration for half-maximal inhibition (IC50) was in the range of 0.1 to 1 µM. On the same count and under the same terms, the result for `COc1nc(N[C@@H]2CCN(C(=O)c3ccc(NC(=O)/C=C/CN4CCC[C@@H](F)C4)cc3)C2)ncc1Cl` [Example 178, (E)-N-(4-((R)-3-((5-chloro-4-methoxypyrimidin-2-yl)amino)pyrrolidine-1-carbonyl)phenyl)-4-((R)-3-fluoropiperidin-1-yl)but-2-enamide] reads 0.1 to 1 µM; that for `C=CC(=O)Nc1ccc(C(=O)N2CC[C@@H](Nc3ncc(Cl)c(C(F)(F)F)n3)C2)cc1` [Example 92, (R)—N-(4-(3-((5-chloro-4-(trifluoromethyl)pyrimidin-2-yl)amino)pyrrolidine-1-carbonyl)phenyl)acrylamide], less than 0.1 µM; that for `C=CC(=O)Nc1cccc(C(=O)N2CC[C@@H](Nc3ncc(Cl)c(OC)n3)C2)c1` [Example 105, (R)—N-(3-(3-((5-chloro-4-methoxypyrimidin-2-yl)amino)pyrrolidine-1-carbonyl)phenyl)acrylamide], 0.1 to 1 µM. For the compound `C=CC(=O)Nc1ccc(C(=O)N2CC[C@@H](Nc3ncc(Br)cn3)C2)cc1O[C@H]1CCN(C)C1` [Example 164, N-(4-((R)-3-((5-bromopyrimidin-2-yl)amino)pyrrolidine-1-carbonyl)-2-(((S)-1-methylpyrrolidin-3-yl)oxy)phenyl)acrylamide], the IC50 was less than 0.1 µM. With `C=CC(=O)Nc1ccc(C(=O)N2CC[C@@H](Nc3ncc(Cl)c(N4CCC4)n3)C2)cc1` [Example 89, (R)—N-(4-(3-((4-(azetidin-1-yl)-5-chloropyrimidin-2-yl)amino)pyrrolidine-1-carbonyl)phenyl)acrylamide], the IC50 was in the range of 0.1 to 1 µM. On to `C=CC(=O)Nc1ccc(C(=O)N2CC[C@@H](Nc3ncc(Cl)c(OCCOCC)n3)C2)cc1N1CCN(C)CC1` [Example 123, (R)—N-(4-(3-((5-chloro-4-(2-ethoxyethoxy)pyrimidin-2-yl)amino)pyrrolidine-1-carbonyl)-2-(4-methylpiperazin-1-yl)phenyl)acrylamide], for which the half-inhibitory concentration (IC50) lay in the range of 0.1 to 1 µM. Same read-out and setting: the figure for `C=CC(=O)Nc1ccc(C(=O)N2C[C@H](Nc3ncc(Cl)c(OC)n3)C[C@H]2C)cc1` [Example 183, N-(4-((2R,4R)-4-((5-chloro-4-methoxypyrimidin-2-yl)amino)-2-methylpyrrolidine-1-carbonyl)phenyl)acrylamide] is less than 0.1 µM; for `[2H]c1nc(N[C@@H]2CCN(C(=O)c3ccc(NC(=O)C=C)cc3)C2)nc(NC)c1Cl` [Example 111, (R)—N-(4-(3-((5-chloro-4-deutero-6-(methylamino)pyrimidin-2-yl)amino)pyrrolidine-1-carbonyl)phenyl)acrylamide] it is less than 0.1 µM; for `[2H]C([2H])([2H])Oc1nc(N[C@@H]2CCN(C(=O)c3cccc(N4C(=O)C=CC4=O)c3)C2)ncc1Cl` [Example 128, (R)-1-(3-(3-((5-chloro-4-(trideuteriomethoxy)pyrimidin-2-yl)amino)pyrrolidine-1-carbonyl)phenyl)-1H-pyrrole-2,5-dione] it is 1 to 10 µM. Take `C#CC(=O)Nc1ccc(C(=O)N2CC[C@@H](Nc3ncc(Cl)cn3)C2)cc1` [Example 125, (R)—N-(4-(3-((5-chloropyrimidin-2-yl)amino)pyrrolidine-1-carbonyl)phenyl)propiolamide]: the IC50 was less than 0.1 µM. Turning to `C=CC(=O)Nc1ccc(C(=O)N2CC[C@@H](Nc3ncc(Cl)c(OCC)n3)C2)cc1` [Example 96, (R)—N-(4-(3-((5-chloro-4-ethoxypyrimidin-2-yl)amino)pyrrolidine-1-carbonyl)phenyl)acrylamide], the 50% inhibitory concentration (IC50) is less than 0.1 µM. Still for that read-out and setting: the figure for `COc1nc(N[C@@H]2CCN(C(=O)c3ccc(NC(=O)/C=C/CN4CC[C@@H](F)C4)nc3)C2)ncc1Cl` [Example 179, (E)-N-(5-((R)-3-((5-chloro-4-methoxypyrimidin-2-yl)amino)pyrrolidine-1-carbonyl)pyridin-2-yl)-4-((R)-3-fluoropyrrolidin-1-yl)but-2-enamide] is 0.1 to 1 µM; for `C=CC(=O)Nc1ccc(C(=O)N2CC[C@@H](Nc3ncc(Br)cn3)C2)cc1N(C)CCN(C)C` [Example 159, (R)—N-(4-(3-((5-bromopyrimidin-2-yl)amino)pyrrolidine-1-carbonyl)-2-((2-(dimethylamino)ethyl)(methyl)amino)phenyl)acrylamide] it is 1 to 10 µM.
